We go through 15 compounds from publication PMC6009855, “Design and synthesis of naphthalimide group-bearing thioglycosides as novel β-N-acetylhexosaminidases inhibitors” (Journal of Enzyme Inhibition and Medicinal Chemistry, 2018).

Like-named read-outs stand apart in the source and are kept apart here.

For data set [1], the target named is GH20 insect β-N-acetylhexosaminidase OfHex1. Also noted: method as in PMID 25155420. The conditions noted are these: read-out: Ki against OfHex1; cited from earlier work.
The target of data set [2] is T1, hsHexB (Homo sapiens, UniProt P07686).
T1 construct: His6; made in house; host or cells: Pichia pastoris GS115 (pPIC9 vector)
T1 sequence (P07686 122-556): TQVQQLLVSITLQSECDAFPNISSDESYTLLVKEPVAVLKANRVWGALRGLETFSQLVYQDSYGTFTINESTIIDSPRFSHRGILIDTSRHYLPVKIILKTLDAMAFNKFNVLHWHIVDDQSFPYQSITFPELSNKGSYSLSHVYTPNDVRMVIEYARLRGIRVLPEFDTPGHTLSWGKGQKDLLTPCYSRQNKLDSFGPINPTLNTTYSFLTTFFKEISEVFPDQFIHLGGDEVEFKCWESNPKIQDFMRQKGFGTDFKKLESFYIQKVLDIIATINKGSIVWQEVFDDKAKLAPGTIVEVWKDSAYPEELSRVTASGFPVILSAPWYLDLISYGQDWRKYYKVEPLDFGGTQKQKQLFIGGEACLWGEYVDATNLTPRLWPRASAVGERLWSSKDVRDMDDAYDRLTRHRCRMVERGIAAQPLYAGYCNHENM
Kind of data set: Inhibitory potency assay, end-point, 4-MU-GlcNAc substrate, pH 4.0. The conditions noted are these: for Inhibition potency against hsHexB (in words): each compound at 20 µM, Figure 3; for Ki: 4-MU-GlcNAc, pH 4.0, 30 °C, 30 min, read-out: Ki against hsHexB. The class given is biochemical. The method, then:
(§1) Gene encoding hsHexB, which was engineered to contain a His6-tagged fusion protein, was cloned into pPIC9 expression vector (Invitrogen, Carlsbad, CA, USA), and subsequently transformed into Pichia pastoris GS115 (Invitrogen, Carlsbad, CA, USA) by electroporation. The cells were first cultured in BMGY broth (1% yeast extract, 1% glycerol, 2% peptone, 0.2% biotin, 1.34% yeast nitrogen, 0.1 M potassium phosphate, pH 6.0) at 30 °C. Methanol was added into the culture daily at a final concentration of 1% (v/v). When OD600 value reached 2.0 (after ∼120 h), the cells were harvested by centrifugation at 6000g for 10 min. While the pellet was resuspended in BMMY broth (1% yeast extract, 1% methanol, 2% peptone, 0.2% biotin, 1.34% yeast nitrogen, 0.1 M potassium phosphate, pH 6.0), the supernatant was subjected to ammonium sulfate precipitation (75% saturation) at 4 °C, in which the precipitate was further resuspended in distilled water and then desalted in buffer A (20 mM sodium phosphate, 0.5 M sodium chloride, pH 7.4). Subsequently, the resuspension solution was centrifuged at 17,000g for 30 min at 4 °C and passed through a 0.2-µm filter prior to loading onto a 5-ml HisTrap FF affinity column (GE Healthcare, Chicago, IL, USA), which was pre-equilibrated with buffer A. To remove nonspecific binding proteins, the column was sequentially washed with buffer A-containing 20 mM imidazole and buffer A-containing 50 mM imidazole. Finally, the target protein was eluted with buffer B (20 mM sodium phosphate, 0.5 M sodium chloride, 150 mM imidazole, pH 7.4). Purity of the protein was further analyzed by SDS–PAGE. hOGA was overexpressed in Escherichia coli BL21(DE3) and purified as described previously.
(§2) Potencies of hsHexB and hOGA were assayed by end-point experiment, in which 4-methylumbelliferyl N-acetyl-β-D-glucosaminide (4-MU-GlcNAc; Sigma, St. Louis, MO, USA) was used as a substrate. Various concentrations of inhibitors and substrates (50 µM, 25 µM, and 12.5 µM) were mixed with Britton-Robinson buffer (hsHexB, pH 4.0; hOGA, pH 6.0), dimethylsulfoxide at a final concentration of 2%, enzyme, and 40 µM 4-MU-GlcNAc in a reaction of 100-µl final volume, and incubated at 30 °C for 30 min. Then, the enzymatic reaction was terminated by the addition of 100 µl of 0.5 M sodium carbonate solution. The fluorescence of the released 4-methylumbelliferone was quantified (excitation at 366 nm, emission at 445 nm) on a Varioskan Flash microplate reader (Thermo Fisher Scientific, Waltham, MA, USA). To determine the inhibition constant (Ki), the reciprocal plots of 1/velocity versus inhibitor were constructed. Data analysis was performed using Graph Pad Prism software (Graph Pad Software Inc., San Diego, CA, USA).

In data set [3] the test system is GH20 and GH84 β-N-acetylhexosaminidases. Also noted: method as in PMID 22280348, PMID 23688083. Conditions: cited from earlier work.
The test system of the next data set is hsHexA. Also noted: method as in PMID 17317569. The conditions noted are these: read-out: IC50 against hsHexA; cited from earlier work.
The target in a further data set is hsHex. The arrangement: method as in PMID 24900704. The conditions noted are these: read-out: Ki against hsHex; cited from earlier work.
In the next data set the target is T2, hOGA (Homo sapiens, UniProt O60502).
T2 construct: made in house; host or cells: Escherichia coli BL21(DE3)
T2 sequence (O60502 1-916): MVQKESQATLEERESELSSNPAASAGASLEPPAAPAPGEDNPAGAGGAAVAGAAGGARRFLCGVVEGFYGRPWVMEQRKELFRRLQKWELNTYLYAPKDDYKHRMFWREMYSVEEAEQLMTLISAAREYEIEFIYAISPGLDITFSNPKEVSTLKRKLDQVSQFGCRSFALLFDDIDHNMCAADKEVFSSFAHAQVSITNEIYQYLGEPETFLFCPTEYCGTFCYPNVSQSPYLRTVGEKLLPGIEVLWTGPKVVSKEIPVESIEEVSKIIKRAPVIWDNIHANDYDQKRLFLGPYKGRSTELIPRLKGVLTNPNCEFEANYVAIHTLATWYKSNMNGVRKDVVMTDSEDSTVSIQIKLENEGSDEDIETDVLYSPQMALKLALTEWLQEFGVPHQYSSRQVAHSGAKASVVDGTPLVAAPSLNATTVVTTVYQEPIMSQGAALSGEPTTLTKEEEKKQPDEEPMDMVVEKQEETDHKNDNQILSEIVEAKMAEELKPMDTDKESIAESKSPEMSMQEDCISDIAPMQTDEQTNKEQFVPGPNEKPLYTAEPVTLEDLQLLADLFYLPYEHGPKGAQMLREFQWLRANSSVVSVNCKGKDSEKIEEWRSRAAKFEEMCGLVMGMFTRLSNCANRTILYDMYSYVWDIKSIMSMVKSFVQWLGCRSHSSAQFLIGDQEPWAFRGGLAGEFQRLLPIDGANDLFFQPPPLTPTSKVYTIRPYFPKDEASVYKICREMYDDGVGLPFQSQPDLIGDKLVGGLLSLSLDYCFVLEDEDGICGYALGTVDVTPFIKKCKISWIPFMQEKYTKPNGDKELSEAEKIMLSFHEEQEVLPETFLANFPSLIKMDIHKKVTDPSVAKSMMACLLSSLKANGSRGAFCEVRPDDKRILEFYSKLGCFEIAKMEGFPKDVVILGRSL
Kind of data set: Inhibitory potency assay, end-point, 4-MU-GlcNAc substrate, pH 6.0. The class given is biochemical. Conditions: for Inhibition potency against hOGA (in words): each compound at 20 µM, Figure 3; for Ki: 4-MU-GlcNAc, pH 6.0, 30 °C, 30 min, read-out: Ki against hOGA. How it is done: as §1, §2

Data set [4] has as its target T1, hsHexB. The arrangement: method as in PMID 20187655. The conditions noted are these: cited from earlier work.

As for `Cc1nnc(CNCCN2C(=O)c3cccc4cccc(c34)C2=O)s1` [compound Q1], the inhibition constant (Ki) in data set [1] is 4.28 µM.

As to `CC(=O)N[C@@H]1[C@@H](O)[C@H](O)[C@@H](CO)O[C@H]1SCCCCCCNCCCN1C(=O)c2cccc3cccc(c23)C1=O` [compound 15k], the “Inhibition potency against hsHexB (in words)” value on hsHexB [2] is recorded as “considerably decreased”.

`CC(=O)N[C@H]1c2nc(CC(=O)O)cn2[C@H](CO)[C@H](O)[C@@H]1O` [Nagstatin]: the “Selectivity between GH20 and GH84 β-N-acetylhexosaminidases” value in data set [3] is “non-selectivity”.

In the case of `O=C1c2cccc3cccc(c23)C(=O)N1CCNCCN1C(=O)c2cccc3cccc(c23)C1=O` [M-31850], in the data set on hsHexA, the IC50 is 6 µM.

As to `COc1ccc(CNCCN2C(=O)c3cccc4cccc(c34)C2=O)cc1` [compound 7a (7)], on hsHex, the inhibition constant (Ki) was 0.63 µM.

In turn, `CC(=O)N[C@@H]1[C@@H](O)[C@H](O)[C@@H](CO)O[C@H]1SCCCCS[C@@H]1O[C@H](CO)[C@@H](O)[C@H](O)[C@H]1NC(C)=O` [compound 17, 1,4-bis[(2-acetamido-2-deoxy-β-D-glucopyranosyl)thio] butane] returned a melting point of 236 to 238 °C. Moreover, the “Inhibition potency against hsHexB (in words)” value on hsHexB [2] is “hardly showed activity”. For the same compound, at hOGA, the “Inhibition potency against hOGA (in words)” value is “hardly showed activity”.

For the compound `CC(=O)N[C@@H]1[C@@H](O)[C@H](O)[C@@H](CO)O[C@H]1SCCCCCCNCCN1C(=O)c2cccc3cccc(c23)C1=O` [compound 15j], the “Type of inhibition of hsHexB” value on hsHexB [2] (Dixon plots, Figure 4A) is listed as “competitive inhibitors”. Besides, the Ki on hsHexB [2] (Dixon plots) is 0.91 µM; on hOGA (Dixon plots) it was over 100 µM. Besides, the “Inhibition potency against hsHexB (in words)” value on hsHexB [2] was “highest potencies”.

As to `CC(=O)N[C@@H]1[C@@H](O)[C@H](O)[C@@H](CO)O[C@H]1SCCCNCCN1C(=O)c2cccc3cccc(c23)C1=O` [compound 15d], the melting point fell in the range of 230 to 232 °C. Further, the “Inhibition potency against hsHexB (in words)” value at hsHexB [2] is listed as “highest potencies”.

On to `COc1ccc(CN(CCCCCCCN2C[C@H](NC(C)=O)[C@@H](O)[C@H](O)[C@H]2CO)Cc2ccc(OC)cc2)cc1` [compound 4 (5)], for which the “Selectivity for hsHexB toward GH84 hOGA” value at hsHexB [4] is on record as 250,000 fold. In addition, at hsHexB [4] (read-out: Ki against hsHexB), the inhibition constant (Ki) was 0.00069 µM.

As to `CC1=N[C@@H]2[C@@H](O)[C@H](O)[C@@H](CO)O[C@@H]2S1` [NAG-thiazoline], in data set [3], the “Selectivity between GH20 and GH84 β-N-acetylhexosaminidases” value is reported as “non-selectivity”.

Turning to `CC(=O)N[C@H]1/C(=N/OC(=O)Nc2ccccc2)O[C@H](CO)[C@@H](O)[C@@H]1O` [PUGNAc], the “Selectivity between GH20 and GH84 β-N-acetylhexosaminidases” value in data set [3] was “non-selectivity”.

With `CC(=O)N[C@@H]1[C@@H](O)[C@H](O)[C@@H](CO)O[C@H]1SCCCCCCNCCCCN1C(=O)c2cccc3cccc(c23)C1=O` [compound 15l], the “Inhibition potency against hsHexB (in words)” value on hsHexB [2] is reported as “considerably decreased”.

For “2-[2-[2-[(2-acetamido-β-D-glucopyranosyl)thio]ethylamino]ethyl]-1H-benzo[de] isoquinoline-1,3(2H)-dione [compound 15a]”, the “Inhibition potency against hsHexB (in words)” value on hsHexB [2] is “highest potencies”.

In turn, `CC(=O)N[C@@H]1[C@@H](O)[C@H](O)[C@@H](CO)O[C@H]1SCCNCCCN1C(=O)c2cccc3cccc(c23)C1=O` [compound 15b] displayed a melting point of 218 to 220 °C. Moreover, on hsHexB [2] (Dixon plots), the inhibitory constant (Ki) was 30.4 µM. In addition, the “Type of inhibition of hOGA” value on hOGA (Dixon plots, Figure 4B) is reported as “competitive inhibitors”. In addition, the Ki at hOGA (Dixon plots) was found to be 3.76 µM. Also, the “Inhibition potency against hOGA (in words)” value on hOGA is on record as “highest potency”.

Regarding `CC(=O)N[C@@H]1[C@@H](O)[C@H](O)[C@@H](CO)O[C@H]1SCCCCCNCCN1C(=O)c2cccc3cccc(c23)C1=O` [compound 15g], the “Inhibition potency against hsHexB (in words)” value at hsHexB [2] is “highest potencies”.

The term Ki denotes a measure of affinity in units of concentration, obtained from inhibition or displacement. The IC50 is the concentration at which inhibition is half-maximal. A word on the melting point: it is the temperature, or range, at which the solid turns liquid.
